Test results taken from patent US5665386A, “Use of essential oils to increase bioavailability of oral pharmaceutical compounds” (priority 1995, dated 1997).
“And” between values parts separate entries of the source, which are not always exact repeats. Equal entries are not always repeated. Where two headings read alike, the source gives them in different places.

System: rat cytochrome P450 3A
[1] = Table 2, 0.0001 wt. % component
[2] = Table 2, repeat 0.0001 wt. % (SD in parentheses)

Row | Structure (SMILES) | % inhibition of cyclosporine metabolism [1] [%] | % inhibition of cyclosporine metabolism (Table 2, 0.001 wt. % component) [%] | % inhibition of cyclosporine metabolism (Table 2, 0.01 wt. % component) [%] | also measured
1 | CC12CCC(CC1=O)C2(C)C (racemic) [Camphor-(±), 1,7,7-Trimethylbicyclo [2.2.1] heptan-2-one] |  |  |  | % inhibition of cyclosporine metabolism, repeat (microsomes, pH 7.4): 53 (3) %
2 | C=CC(C)(O)CCC=C(C)C (racemic) [Linalool-(±), 3,7-Dimethyl-1,6-octadien-3-ol] | 41 | 72.0 | 85 | % inhibition of cyclosporine metabolism, repeat [2]: -7 (9) % and -5 (2) %
3 | CCC=CCC1C(=O)CCC1CC(=O)OC (racemic) [Methyl Jasmonate-(±), Methyl-3-oxo-2-(2-pentenyl)-cyclopentane acetate] | -27 | 65 |  | 
4 | C=C1C2CCC(C2)C1(C)C (single isomer, unassigned) [Camphene-(+), 2,2-Dimethyl-3-methylenebicyclo[2.2.1]heptane] | -49 | 12.4 |  | 
5 | C=C(C)C1CC=C(C)C(O)C1 (single isomer, unassigned) [Carveol-(-), p-Mentha-6,8-dien-2-ol] | 2 | 60 |  | 
6 | CC=C(C)C=CC=C(C)C [Allo Ocimene, 2,6-Dimethyl-2,4,6-octatriene] | 6 | 22 |  | 
7 | C/C=C/c1ccc(OC)cc1 [Anethole, trans-, 4-Propenylanisole] |  | 53 | 100 | 
8 | O=C(/C=C/c1ccccc1)OCc1ccccc1 [Benzyl Cinnamate, Benzyl 3-phenylpropenoic acid] | 7 | -45 |  | 
9 | COc1cc(CNC(=O)CCCC/C=C/C(C)C)ccc1O [Capsaicin, trans-8-Methyl-N-vanillyl-6 nonenamide] | 27 | 68 |  | 
10 | CC1=CCC2C(C1)C2(C)C (centres unmarked) [Carene-3-(Δ)] | -26 | 34 |  | 
11 | Cc1ccc(C(C)C)cc1O [Carvacrol, 5-isoProply-2-methylphenol] | 11 | 93 | 97 | 
12 | C=C(C)[C@@H]1CC=C(C)C(=O)C1 [Carvone-(R)-(-), p-Mentha-6,8-dien-2-one] | 27 | 69 | 100 | 
13 | C=C(C)[C@H]1CC=C(C)C(=O)C1 [Carvone-(S)-(+), p-Mentha-6,8-dien-2-one] | 30 | 70.5 |  | 
14 | C=C1CC/C=C(\C)CC[C@@H]2[C@@H]1CC2(C)C [Caryophyllene, trans-(-), β Caryophyllene] | 26 | 85 |  | 
15 | O=C/C=C/c1ccccc1 [Cinnamic Aldehyde, trans-, 3-Phenylpropenaldehyde] |  | 29.0 | 78 | 
16 | CC(C)=CCC/C(C)=C/C=O [Citral] | 44 | 54 | 99 | 
17 | CC(C)=CCCC(C)CCO (stereo not drawn) [Citronellol-(DL)-(β), 3,7-Dimethyl-6-octen-1-ol] | 41 | 86 | 95 | % inhibition of cyclosporine metabolism, repeat [2]: 35 (4) %
18 | C=CCc1ccc(OC)cc1 [Estragole, 4-Allylanisole] | 7 | 69.2 | 100 | 
19 | CCOC(=O)/C=C/c1ccccc1 [Ethyl Cinnamate, trans-, Ethyl 3-phenylpropenoic acid] | -13 | -16 |  | 

Row | Structure (SMILES) | % inhibition of cyclosporine metabolism [1] [%] | % inhibition of cyclosporine metabolism (Table 2, 0.001 wt. % component) [%] | % inhibition of cyclosporine metabolism (Table 2, 0.01 wt. % component) [%] | also measured
20 | CCOc1cc(C=O)ccc1O [Ethyl Vanillin, 3-Ethoxy-4-hydroxybenzalehyde] |  |  | 58 | 
21 | C=CCc1ccc(O)c(OC)c1 [Eugenol, 4-Allyl-2-methoxyphenol] | 9.8 | 66 | 100 | 
22 | CC(C)=CCC/C(C)=C/CC/C(C)=C/CO [Farnesol, trans-, trans-, 3,7,11-Trimethyl-2,6,10-dodecatrien-1-ol] | 49 | 82 |  | 
23 | CC1(C)[C@H]2CC[C@](C)(C2)[C@H]1O [Fenchol-(1R)-endo-(+), 1,3,3-Trimethylbicyclo [2.2.1] heptan-2-ol] | 18 | 74 | 100 | 
24 | CC1(C)C(=O)[C@]2(C)CC[C@H]1C2 [Fenchone-(1R)-(-), 1,3,3-Trimethylbicyclo [2.2.1] heptan-2-one] | 14 | 38 |  | 
25 | CC(=O)OC/C=C(\C)CCC=C(C)C [Geranyl Acetate, trans-3,7-Dimethyl-2,6-octadien-1-yl acetate] |  | 51.5 | 73 | 
26 | CC/C=C\CC1=C(C)CCC1=O [Jasmone, cis-, 3-Methyl-2-(2-pentenyl)-2-cyclopenten-1-one] | 16.0 | 68 |  | 
27 | CC(=O)N1CCN(c2ccc(OCC3COC(Cn4ccnc4)(c4ccc(Cl)cc4Cl)O3)cc2)CC1 (centres unmarked) [Ketoconazole, reference compound] |  |  |  | % inhibition of cyclosporine metabolism (Table 3, 0.000001%): 8%; % inhibition of cyclosporine metabolism (Table 3, 0.000005%): 20%; % inhibition of cyclosporine metabolism (Table 3, 0.00001%): 42%; % inhibition of cyclosporine metabolism (Table 3, 0.00005%): 100%
28 | C=C(C)[C@H]1CC=C(C)CC1 [Limonene-(R)-(+), p-Mentha-1,8-diene] |  | 20 | 84 | 
29 | C=C(C)[C@@H]1CC=C(C)CC1 [Limonene-(S)-(-), p-Mentha-1,8-diene] |  | 30 | 82.3 | 
30 | C=CC(C)(CCC=C(C)C)OC(C)=O (centres unmarked) [Linalyl Acetate, 3,7-Dimethyl-1,6-octadien-3-yl acetate] |  | 55.8 | 100 | 
31 | CC(C)[C@@H]1CC[C@@H](C)CC1=O [Menthone-(-), p-Menthan-3-one] | 14 | 52 |  | 
32 | COC(=O)c1ccccc1N [Methyl Anthranilate, Methyl 2-aminobenzoate] | -7 | 23 |  | 
33 | C=CC(=C)CCC=C(C)C [Myrcene-β, 7-Methyl-3-methylene-1,6-octadiene] | 0 | 13 |  | 
34 | C=C1CC[C@H]2C[C@@H]1C2(C)C [Pinene-(1S)-(-)-β, 6,6-Dimethyl-2-methylenebicyclo[3.1.1]heptane] | -10 | 60 | 88 | 
35 | CC(C)=C1CC[C@@H](C)CC1=O [Pulegone-(R)-(+), p-Menth-4(8)-en-3-one] | -17 | 31 |  | 
36 | CC1=CCC(O)(C(C)C)CC1 (centres unmarked) [Terpinen-4-ol, p-Menth-1-en-4-ol] | 3.81 | 80 | 100 | 
37 | CC1=CC=C(C(C)C)CC1 [Terpinene-α, p-Mentha-1,3-diene] | -6 | 28 |  | 
38 | CC1=CCC(C(C)(C)O)CC1 (stereo not drawn) [Terpineol-α, p-Menth-1-en-8-ol] | 13.4 | 86 | 100 | 
